Laboratory results as given in ChEMBL document CHEMBL1150975, “Biochemical and three-dimensional-structural study of the specific inhibition of protein kinase CK2 by [5-oxo-5,6-dihydroindolo-(1,2-a)quinazolin-7-yl]acetic acid (IQA)” (Biochem J, 2003).

Experiments:
[1] = biological target: Casein kinase I (Homo sapiens) (UniProt Q9HCP0+P78368+P48730+P49674+P48729); experiment: Percent residual CK1 activity in the presence of 10uM inhibitor; format: protein assay
[2] = biological target: Tyrosine-protein kinase Lyn (Homo sapiens) (UniProt P07948); experiment: Percent residual Lyn activity in the presence of 10uM inhibitor
Tyrosine-protein kinase Lyn (Homo sapiens), sequence (P07948 2-512 limits assumed): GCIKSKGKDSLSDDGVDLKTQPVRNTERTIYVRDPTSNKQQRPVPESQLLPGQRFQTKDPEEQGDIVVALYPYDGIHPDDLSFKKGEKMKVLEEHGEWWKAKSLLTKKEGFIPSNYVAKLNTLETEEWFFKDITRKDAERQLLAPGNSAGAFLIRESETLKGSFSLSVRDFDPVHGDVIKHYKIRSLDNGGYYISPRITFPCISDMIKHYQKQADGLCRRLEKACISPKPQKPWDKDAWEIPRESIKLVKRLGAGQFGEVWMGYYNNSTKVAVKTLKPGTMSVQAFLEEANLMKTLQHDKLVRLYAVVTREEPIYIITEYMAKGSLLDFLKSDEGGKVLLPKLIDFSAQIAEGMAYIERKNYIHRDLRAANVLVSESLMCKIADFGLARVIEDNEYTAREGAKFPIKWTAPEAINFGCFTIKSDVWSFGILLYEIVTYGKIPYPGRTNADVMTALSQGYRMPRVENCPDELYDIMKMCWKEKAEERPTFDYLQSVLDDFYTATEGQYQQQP

[3] = biological target: Tyrosine-protein kinase Fgr (Homo sapiens) (UniProt P09769); experiment: Percent residual c-Fgr activity in the presence of 10uM inhibitor
Tyrosine-protein kinase Fgr (Homo sapiens), sequence (P09769 2-529 limits assumed): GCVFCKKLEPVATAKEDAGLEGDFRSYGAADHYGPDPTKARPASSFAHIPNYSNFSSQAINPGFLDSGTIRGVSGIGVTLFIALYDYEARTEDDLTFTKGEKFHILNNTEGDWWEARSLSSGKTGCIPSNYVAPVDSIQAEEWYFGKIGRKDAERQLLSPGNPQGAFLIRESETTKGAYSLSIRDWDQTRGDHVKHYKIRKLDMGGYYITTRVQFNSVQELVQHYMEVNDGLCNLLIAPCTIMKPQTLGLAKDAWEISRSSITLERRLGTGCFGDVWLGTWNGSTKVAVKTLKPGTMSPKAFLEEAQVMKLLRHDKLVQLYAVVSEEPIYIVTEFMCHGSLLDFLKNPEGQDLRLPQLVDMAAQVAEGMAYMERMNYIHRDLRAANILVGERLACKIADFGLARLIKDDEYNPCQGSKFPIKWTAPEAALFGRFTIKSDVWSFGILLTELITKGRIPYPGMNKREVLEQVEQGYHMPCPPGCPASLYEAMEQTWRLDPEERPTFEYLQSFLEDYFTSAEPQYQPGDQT

[4] = biological target: Mitogen-activated protein kinase 1 (Homo sapiens) (UniProt P28482); experiment: Percent residual ERK2 activity in the presence of 10uM inhibitor
Mitogen-activated protein kinase 1 (Homo sapiens), sequence (P28482 whole entry): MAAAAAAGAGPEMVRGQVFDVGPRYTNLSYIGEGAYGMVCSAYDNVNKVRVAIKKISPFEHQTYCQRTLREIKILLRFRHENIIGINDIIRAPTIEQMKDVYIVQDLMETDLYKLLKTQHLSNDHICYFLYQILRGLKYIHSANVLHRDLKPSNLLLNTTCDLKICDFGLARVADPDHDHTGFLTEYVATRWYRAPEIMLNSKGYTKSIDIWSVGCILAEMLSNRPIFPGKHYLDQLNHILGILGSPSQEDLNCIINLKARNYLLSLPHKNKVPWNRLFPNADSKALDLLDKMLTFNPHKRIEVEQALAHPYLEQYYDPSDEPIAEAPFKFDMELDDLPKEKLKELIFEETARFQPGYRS

[5] = biological target: cAMP-dependent protein kinase (PKA) (Homo sapiens, UniProt P22694+P17612+P22612); experiment: Percent residual PKA activity in the presence of 10uM inhibitor; format: protein assay
[6] = biological target: T1, 3-phosphoinositide-dependent protein kinase 1 (Homo sapiens) (UniProt O15530); experiment: Percent residual PDK1 activity in the presence of 10uM inhibitor
T1 sequence (whole entry): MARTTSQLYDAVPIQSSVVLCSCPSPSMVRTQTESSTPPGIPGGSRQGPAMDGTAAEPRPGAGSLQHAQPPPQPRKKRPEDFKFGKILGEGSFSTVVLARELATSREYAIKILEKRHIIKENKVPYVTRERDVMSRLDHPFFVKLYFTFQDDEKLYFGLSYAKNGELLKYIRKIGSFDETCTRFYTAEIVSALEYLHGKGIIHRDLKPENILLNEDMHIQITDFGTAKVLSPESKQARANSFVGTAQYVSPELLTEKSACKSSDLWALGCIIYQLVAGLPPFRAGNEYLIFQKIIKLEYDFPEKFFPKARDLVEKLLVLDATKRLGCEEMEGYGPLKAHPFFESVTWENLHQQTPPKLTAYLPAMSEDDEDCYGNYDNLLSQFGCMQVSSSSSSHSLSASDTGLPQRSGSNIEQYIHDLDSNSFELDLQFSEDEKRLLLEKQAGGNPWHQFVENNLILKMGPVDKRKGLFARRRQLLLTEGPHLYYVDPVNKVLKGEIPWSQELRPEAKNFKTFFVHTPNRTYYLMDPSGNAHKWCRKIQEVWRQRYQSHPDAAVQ

[7] = biological target: Ribosomal protein S6 kinase beta-1 (Homo sapiens) (UniProt P23443); experiment: Percent residual S6K1 activity in the presence of 10uM inhibitor
[8] = biological target: T2, MAP kinase-activated protein kinase 5 (Homo sapiens) (UniProt Q8IW41); experiment: Percent residual PRAK activity in the presence of 10uM inhibitor
T2 sequence (whole entry): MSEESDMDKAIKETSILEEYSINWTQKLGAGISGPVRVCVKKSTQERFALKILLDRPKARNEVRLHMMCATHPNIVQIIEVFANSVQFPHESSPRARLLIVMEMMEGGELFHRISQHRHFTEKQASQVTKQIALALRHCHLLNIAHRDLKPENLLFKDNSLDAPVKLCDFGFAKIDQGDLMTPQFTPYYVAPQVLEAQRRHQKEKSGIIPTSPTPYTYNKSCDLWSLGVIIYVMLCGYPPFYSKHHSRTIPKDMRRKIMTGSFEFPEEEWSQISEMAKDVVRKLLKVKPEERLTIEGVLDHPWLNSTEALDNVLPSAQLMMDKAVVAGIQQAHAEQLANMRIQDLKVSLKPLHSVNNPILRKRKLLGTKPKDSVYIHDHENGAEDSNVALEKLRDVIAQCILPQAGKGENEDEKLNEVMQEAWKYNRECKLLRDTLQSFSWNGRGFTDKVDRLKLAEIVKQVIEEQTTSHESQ

[9] = biological target: T3, Tyrosine-protein kinase Lck (Homo sapiens, UniProt P06239); experiment: Percent residual Lck activity in the presence of 10uM inhibitor
Target sequence in this assay (P06239 2-509 limits assumed): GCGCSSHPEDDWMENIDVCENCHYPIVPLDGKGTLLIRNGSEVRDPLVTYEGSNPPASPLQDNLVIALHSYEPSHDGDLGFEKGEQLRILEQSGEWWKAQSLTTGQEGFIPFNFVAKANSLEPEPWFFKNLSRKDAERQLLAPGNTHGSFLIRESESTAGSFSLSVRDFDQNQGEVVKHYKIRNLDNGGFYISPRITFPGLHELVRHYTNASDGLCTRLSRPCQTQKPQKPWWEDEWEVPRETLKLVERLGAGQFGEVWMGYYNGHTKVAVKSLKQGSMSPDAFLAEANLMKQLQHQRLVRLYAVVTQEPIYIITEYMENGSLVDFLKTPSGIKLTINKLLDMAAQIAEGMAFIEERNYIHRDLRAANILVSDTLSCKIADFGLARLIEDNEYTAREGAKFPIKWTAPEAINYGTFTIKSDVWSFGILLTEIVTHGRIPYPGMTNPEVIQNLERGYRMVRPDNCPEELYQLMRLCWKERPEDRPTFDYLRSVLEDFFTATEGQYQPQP

[10] = biological target: Tyrosine-protein kinase CSK (Homo sapiens) (UniProt P41240); experiment: Percent residual CSK activity in the presence of 10uM inhibitor
Tyrosine-protein kinase CSK (Homo sapiens), sequence (P41240 2-450 limits assumed): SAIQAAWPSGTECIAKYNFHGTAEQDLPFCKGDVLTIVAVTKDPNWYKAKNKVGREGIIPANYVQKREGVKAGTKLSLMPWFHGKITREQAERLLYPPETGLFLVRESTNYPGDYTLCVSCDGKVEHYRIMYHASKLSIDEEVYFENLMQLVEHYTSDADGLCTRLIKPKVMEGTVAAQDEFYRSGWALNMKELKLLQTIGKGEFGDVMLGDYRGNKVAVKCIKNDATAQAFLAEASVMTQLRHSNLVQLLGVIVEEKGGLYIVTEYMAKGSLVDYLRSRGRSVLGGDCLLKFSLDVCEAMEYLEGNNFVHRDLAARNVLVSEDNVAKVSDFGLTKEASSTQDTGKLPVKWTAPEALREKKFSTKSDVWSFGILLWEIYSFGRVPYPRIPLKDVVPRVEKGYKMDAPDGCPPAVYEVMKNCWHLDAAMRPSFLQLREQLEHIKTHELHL

[11] = biological target: Rho-associated protein kinase 2 (Homo sapiens) (UniProt O75116); experiment: Percent residual ROCK-II activity in the presence of 10uM inhibitor
Rho-associated protein kinase 2 (Homo sapiens), sequence (O75116 whole entry, looked up): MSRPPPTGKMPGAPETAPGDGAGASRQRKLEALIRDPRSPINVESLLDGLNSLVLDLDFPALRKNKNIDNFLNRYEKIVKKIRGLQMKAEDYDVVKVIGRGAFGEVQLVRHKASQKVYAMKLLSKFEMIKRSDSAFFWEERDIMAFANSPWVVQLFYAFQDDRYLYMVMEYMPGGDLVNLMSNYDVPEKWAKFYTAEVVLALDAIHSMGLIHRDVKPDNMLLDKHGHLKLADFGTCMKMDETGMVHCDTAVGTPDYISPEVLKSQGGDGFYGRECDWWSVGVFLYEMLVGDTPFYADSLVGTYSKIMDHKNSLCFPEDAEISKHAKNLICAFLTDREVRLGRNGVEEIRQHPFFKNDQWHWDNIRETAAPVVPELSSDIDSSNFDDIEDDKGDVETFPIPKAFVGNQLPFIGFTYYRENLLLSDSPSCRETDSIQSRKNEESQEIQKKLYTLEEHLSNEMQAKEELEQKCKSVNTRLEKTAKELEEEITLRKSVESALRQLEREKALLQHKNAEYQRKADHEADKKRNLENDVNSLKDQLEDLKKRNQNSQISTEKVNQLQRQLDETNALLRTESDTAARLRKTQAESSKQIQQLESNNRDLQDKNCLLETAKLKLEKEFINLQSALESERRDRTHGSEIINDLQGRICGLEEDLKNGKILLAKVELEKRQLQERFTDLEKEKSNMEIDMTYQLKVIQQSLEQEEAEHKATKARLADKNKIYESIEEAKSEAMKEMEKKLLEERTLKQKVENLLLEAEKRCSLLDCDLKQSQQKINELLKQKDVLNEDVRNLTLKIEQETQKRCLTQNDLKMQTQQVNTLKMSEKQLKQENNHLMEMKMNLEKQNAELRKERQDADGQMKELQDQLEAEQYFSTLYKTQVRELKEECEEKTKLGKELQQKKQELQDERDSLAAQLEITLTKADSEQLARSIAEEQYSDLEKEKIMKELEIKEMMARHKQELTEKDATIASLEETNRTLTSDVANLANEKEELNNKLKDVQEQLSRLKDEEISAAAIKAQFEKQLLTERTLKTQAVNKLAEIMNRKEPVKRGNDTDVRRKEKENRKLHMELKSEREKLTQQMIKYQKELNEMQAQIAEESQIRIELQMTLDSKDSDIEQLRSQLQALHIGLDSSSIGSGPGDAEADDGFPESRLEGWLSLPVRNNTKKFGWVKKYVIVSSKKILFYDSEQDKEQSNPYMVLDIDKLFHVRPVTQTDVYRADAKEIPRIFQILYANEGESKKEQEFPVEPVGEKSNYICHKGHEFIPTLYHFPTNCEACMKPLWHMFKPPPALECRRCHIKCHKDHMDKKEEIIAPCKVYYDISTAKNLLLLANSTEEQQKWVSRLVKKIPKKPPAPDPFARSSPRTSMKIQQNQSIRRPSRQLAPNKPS

[12] = biological target: Protein kinase C alpha type (Homo sapiens) (UniProt P17252); experiment: Percent residual PKCalpha activity in the presence of 10uM inhibitor
[13] = biological target: Mitogen-activated protein kinase 14 (Homo sapiens) (UniProt Q16539); experiment: Percent residual p38alpha activity in the presence of 10uM inhibitor
[14] = biological target: EKC/KEOPS complex subunit BUD32 (Saccharomyces cerevisiae S288c) (UniProt P53323); experiment: Percent residual PiD261 activity in the presence of 10uM inhibitor
[15] = biological target: T4, Glycogen synthase kinase-3 beta (Homo sapiens, UniProt P49841); experiment: Percent residual GSK3-beta activity in the presence of 10uM inhibitor
Target sequence in this assay (P49841 whole entry, looked up): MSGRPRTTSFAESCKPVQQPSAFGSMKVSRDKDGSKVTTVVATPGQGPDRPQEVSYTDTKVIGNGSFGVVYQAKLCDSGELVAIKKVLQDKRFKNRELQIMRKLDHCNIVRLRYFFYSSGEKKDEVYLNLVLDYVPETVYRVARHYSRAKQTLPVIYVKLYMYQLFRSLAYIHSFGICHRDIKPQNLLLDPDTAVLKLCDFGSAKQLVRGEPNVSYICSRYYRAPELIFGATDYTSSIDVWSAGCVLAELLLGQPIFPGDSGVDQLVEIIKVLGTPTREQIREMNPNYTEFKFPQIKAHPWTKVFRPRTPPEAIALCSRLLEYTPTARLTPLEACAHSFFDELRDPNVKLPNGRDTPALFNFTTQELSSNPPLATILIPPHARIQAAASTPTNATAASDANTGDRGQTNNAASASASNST

[16] = biological target: RAF proto-oncogene serine/threonine-protein kinase (Homo sapiens) (UniProt P04049); experiment: Percent residual c-Raf-1 activity in the presence of 10uM inhibitor
[17] = biological target: Fibroblast growth factor receptor 1 (Homo sapiens) (UniProt P11362); experiment: Percent residual FGFR1 activity in the presence of 10uM inhibitor
[18] = biological target: Epidermal growth factor receptor (Homo sapiens) (UniProt P00533); experiment: Percent residual Her-1 activity in the presence of 10uM inhibitor
[19] = biological target: Angiopoietin-1 receptor (Homo sapiens) (UniProt Q02763); experiment: Percent residual Tek activity in the presence of 10uM inhibitor
[20] = biological target: T3, Tyrosine-protein kinase Lck; experiment: Inhibition of Lck
[21] = biological target: Mast/stem cell growth factor receptor Kit (Homo sapiens) (UniProt P10721); experiment: Percent residual c-Kit activity in the presence of 10uM inhibitor
[22] = biological target: Hepatocyte growth factor receptor (Homo sapiens) (UniProt P08581); experiment: Percent residual c-Met activity in the presence of 10uM inhibitor
[23] = biological target: Vascular endothelial growth factor receptor 1 (Homo sapiens) (UniProt P17948); experiment: Percent residual Flt-1 activity in the presence of 10uM inhibitor
[24] = biological target: Insulin-like growth factor 1 receptor (Homo sapiens) (UniProt P08069); experiment: Percent residual IGF-1R activity in the presence of 10uM inhibitor
[25] = biological target: T4, Glycogen synthase kinase-3 beta; experiment: Inhibition of GSK3-beta
Target sequence in this assay (P49841 whole entry): as the sequence (P49841 whole entry, looked up) above

[26] = biological target: Receptor tyrosine-protein kinase erbB-2 (Homo sapiens) (UniProt P04626); experiment: Percent residual Her-2 activity in the presence of 10uM inhibitor
[27] = biological target: Platelet-derived growth factor receptor beta (Homo sapiens) (UniProt P09619); experiment: Percent residual PDGFRbeta activity in the presence of 10uM inhibitor
[28] = biological target: Insulin receptor (Homo sapiens) (UniProt P06213); experiment: Percent residual Ins-R activity in the presence of 10uM inhibitor
[29] = biological target: Proto-oncogene tyrosine-protein kinase Src (Homo sapiens) (UniProt P12931); experiment: Percent residual c-Src activity in the presence of 10uM inhibitor
[30] = biological target: Receptor-type tyrosine-protein kinase FLT3 (Homo sapiens) (UniProt P36888); experiment: Percent residual Flt-3 activity in the presence of 10uM inhibitor

| SMILES | Activity [1] [%] | Activity [2] [%] | Activity [3] [%] | Activity [4] [%] | Activity [5] [%] | Activity [6] [%] | Activity [7] [%] | Activity [8] [%] | Activity [9] [%] | Activity [10] [%] | Activity [11] [%] | Activity [12] [%] | Activity [13] [%] | Activity [14] [%] | Activity [15] [%] | also measured |
| --- | --- | --- | --- | --- | --- | --- | --- | --- | --- | --- | --- | --- | --- | --- | --- | --- |
| Cc1cc(O)c2c(c1)C(=O)c1cc(O)cc(O)c1C2=O [EMODIN] | 79 | 90 | 99 | 88 | 94 | 90 | 84 | 81 | 79 | 109 | 90 | 71 | 92 | 90 | 68 |  |
| O=c1cc(-c2ccc(O)cc2)oc2cc(O)cc(O)c12 [APIGENIN] | 106 | 88 | 48 | 83 | 87 | 86 | 65 | 93 | 45 | 77 | 88 | 100 | 101 | 103 | 54 |  |
| O=C(O)Cc1c2ccccc2n2c1[nH]c(=O)c1ccccc12 | 77 | 93 | 91 | 92 | 66 | 93 | 84 | 76 | 52 | 82 | 94 | 107 | 101 | 100 | 66 | Activity [16]: 80%; Activity [17]: 80%; Activity [18]: 80%; Activity [19]: 80%; IC50 [20]: 11 µM; Activity [21]: 80%; Activity [22]: 80%; Activity [23]: 80%; Activity [24]: 80%; IC50 [25]: 14 µM; Activity [26]: 80%; Activity [27]: 80%; Activity [28]: 80%; Activity [29]: 80%; Activity [30]: 80% |
